We go through 5 molecules from ChEMBL document CHEMBL1158974, “Iridoids: a new class of leishmanicidal agents from Nyctanthes arbortristis” (J Nat Prod, 1991).

Data set [1] deals with Leishmania donovani. The data set can be described thus: Antileishmanial activity against Leishmania donovani HOM/IN/80/Dd8 amastigotes infected in Sigmodon hispidus peritoneal macrophages assessed as reduction in infected macrophages at 30 ug/ml. Format: functional. To be noted: for inhibition at 30 µg/mL: HOM/IN/80/Dd8, in Sigmodon hispidus.
Data set [2] in a line: Cytotoxicity against Sigmodon hispidus peritoneal macrophages at 60 ug/ml. Format: cell-based. Particulars: peritoneal macrophage cell.
The subject of data set [3] is Leishmania donovani. As to the kind of experiment: Antileishmanial activity against Leishmania donovani HOM/IN/80/Dd8 amastigotes infected in Mesocricetus auratus at 10 mg/kg, ip administered daily for 5 days measured after 7 days. It counts as functional. Particulars: for inhibition in vivo at 10 mg/kg: HOM/IN/80/Dd8, in Mesocricetus auratus, route intraperitoneal.

Data set [4] deals with Leishmania donovani. As to the kind of experiment: Antileishmanial activity against Leishmania donovani HOM/IN/80/Dd8 amastigotes infected in Sigmodon hispidus peritoneal macrophages assessed as reduction in average number of amastigotes per infected macrophage at 30 ug/ml. It counts as functional. To be noted: for inhibition at 30 µg/mL: HOM/IN/80/Dd8, in Sigmodon hispidus.

In data set [5] the test system is Leishmania donovani. The data set can be described thus: Antileishmanial activity against Leishmania donovani HOM/IN/80/Dd8 amastigotes infected in Mesocricetus auratus assessed as survival days at 10 mg/kg, ip administered daily for 5 days. It counts as functional.
The subject of data set [6] is Leishmania donovani. The data set can be described thus: Antileishmanial activity against Leishmania donovani HOM/IN/80/Dd8 amastigotes infected in Sigmodon hispidus peritoneal macrophages assessed as reduction in infected macrophages at 100 ug/ml. It counts as functional.
The test system of data set [7] is Leishmania donovani. The data set can be described thus: Antileishmanial activity against Leishmania donovani HOM/IN/80/Dd8 amastigotes infected in Mesocricetus auratus at 100 mg/kg, po administered daily for 5 days. Format: functional. To be noted: HOM/IN/80/Dd8, in Mesocricetus auratus, 120 h.
Data set [8] relates to Leishmania donovani. As to the kind of experiment: Antileishmanial activity against Leishmania donovani HOM/IN/80/Dd8 amastigotes infected in Sigmodon hispidus peritoneal macrophages assessed as reduction in average number of amastigotes per infected macrophage at 100 ug/ml. Format: functional.
The test system of data set [9] is Leishmania donovani. As to the kind of experiment: Antileishmanial activity against Leishmania donovani HOM/IN/80/Dd8 amastigotes infected in Mesocricetus auratus at 10 mg/kg, ip administered daily for 5 days measured after 28 days. It counts as functional.
The subject of data set [10] is Leishmania donovani. As to the kind of experiment: Antileishmanial activity against Leishmania donovani HOM/IN/80/Dd8 amastigotes infected in Sigmodon hispidus peritoneal macrophages assessed as reduction in infected macrophages at 60 ug/ml. Format: functional. Particulars: HOM/IN/80/Dd8, in Sigmodon hispidus.
Data set [11] has as its system Leishmania donovani. The data set can be described thus: Antileishmanial activity against Leishmania donovani HOM/IN/80/Dd8 amastigotes infected in Sigmodon hispidus peritoneal macrophages assessed as reduction in average number of amastigotes per infected macrophage at 60 ug/ml. It counts as functional. Particulars: HOM/IN/80/Dd8, in Sigmodon hispidus.
Data set [12] has as its system Leishmania donovani. The data set can be described thus: Antileishmanial activity against Leishmania donovani HOM/IN/80/Dd8 amastigotes assessed as minimum effective dose. It counts as functional, organism-based.
[13] abbreviates: HOM/IN/80/Dd8, in Sigmodon hispidus.

The source made the active and inactive calls. No cut-off for these calls is given here.

With `COC(=O)C1=CO[C@@H](O[C@@H]2O[C@H](CO)[C@@H](O)[C@H](O)[C@H]2O)[C@@H]2[C@@H](C)[C@@H](O)[C@@H](O)[C@H]12`, the values for the inhibition at 30 µg/mL in the data set on Leishmania donovani [1] and in the data set on Leishmania donovani [4] were 42.2% and 65.8%, respectively. In addition, the Activity entry in [2] was “Toxic”. Besides, in the data set on Leishmania donovani [3], the inhibition in vivo at 10 mg/kg was found to be 30.8%. The Survival with Leishmania donovani [5] (route intraperitoneal) was less than 28 days.
Turning to `COC(=O)C1=CO[C@@H](O[C@@H]2O[C@H](CO)[C@@H](O)[C@H](O)[C@H]2O)[C@@H]2[C@@H](C)[C@@H](OC(=O)/C=C/c3ccc(OC)cc3)[C@@H](O)[C@H]12` [ARBORTRISTOSIDE A], the inhibition at 30 µg/mL is 7.13% in the data set with Leishmania donovani [1] and 45.8% in the data set on Leishmania donovani [4]. Also, the values for the inhibition at 100 µg/mL with Leishmania donovani [6] (setting [13]) and with Leishmania donovani [8] (setting [13]) were 30.2% and 64.6%, respectively. The inhibition in vivo at 10 mg/kg with Leishmania donovani [3] amounted to 18.2%; in the data set with Leishmania donovani [9] (HOM/IN/80/Dd8, in Mesocricetus auratus, route intraperitoneal), 79.7%. In the data set on Leishmania donovani [7], this molecule showed an inhibition in vivo at 100 mg/kg of 57%. Further, the Survival with Leishmania donovani [5] (route intraperitoneal) was 38 days.
With `COC(=O)C1=CO[C@@H](O[C@@H]2O[C@H](CO)[C@@H](O)[C@H](O)[C@H]2O)[C@@H]2[C@@H](CO)[C@@H](OC(=O)/C=C/c3ccc(O)c(O)c3)[C@@H](O)[C@H]12` [ARBORTRISTOSIDE B], the values for the inhibition at 30 µg/mL in the data set on Leishmania donovani [1] and with Leishmania donovani [4] were 28.1% and 25.1%, respectively. Moreover, the inhibition at 60 µg/mL with Leishmania donovani [10] is 41.7%; with Leishmania donovani [11], 47.3%. In addition, the inhibition entry in the data set on Leishmania donovani [3] and in the data set with Leishmania donovani [9] was “inactive” each time. The Survival in the data set with Leishmania donovani [5] (route intraperitoneal) was 59 days.
With `COC(=O)C1=CO[C@@H](O[C@@H]2O[C@H](CO)[C@@H](O)[C@H](O)[C@H]2O)[C@@H]2[C@@H](C)[C@@H](OC(=O)/C=C/c3ccc(O)cc3)[C@@H](O)[C@H]12` [ARBORTRISTOSIDE C], the inhibition at 30 µg/mL in the data set with Leishmania donovani [1] was 39.9%; in the data set on Leishmania donovani [4], 67.4%. In addition, the Activity entry in data set [2] is reported as “Toxic”. In addition, the inhibition result in the data set on Leishmania donovani [3] is “inactive”. Also, in the data set with Leishmania donovani [5] (route intraperitoneal), the Survival was less than 28 days.
In the case of sodium stibogluconate, the inhibition in the data set on Leishmania donovani [1] was determined as 80%; in the data set with Leishmania donovani [6], 100%; in the data set on Leishmania donovani [3], 71.9%; in the data set with Leishmania donovani [4], 80%; in the data set on Leishmania donovani [8] it was 100%; in the data set with Leishmania donovani [9], 93.5%. In addition, in the data set with Leishmania donovani [12], the MED was determined as 10 mg/kg. Moreover, in the data set on Leishmania donovani [5], the Survival was less than 30 days.

In general, inhibition refers to the drop in the measured response relative to a control, in per cent. By inhibition in vivo is commonly meant the change of the read-out against control, counted positive when it falls.
